Data as given in US20210045385A1, “PYRIDAZINONE-SUBSTITUTED KETOXIMES AS HERBICIDES” (FMC Corporation, priority 2018, published 2021).

Legend:
Type in all cases: in vivo
kochia (Kochia scoparia) [1] = assay: Test A postemergence, visual plant response rating; details: for Kochia plant response rating (0 to 100 scale): 500 g ai/ha, postemergence, 0 is no effect, 100 is complete control; for Kochia plant response rating: Postemergence, 125 g ai/ha, 0 to 100 scale (0 no effect, 100 complete control)
Summary of the method: (§1)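 Greenhouse pot test in loam–sand soil mix: compound in a surfactant-containing non-phytotoxic solvent applied preemergence (directed soil spray) or postemergence (one- to two-leaf plants, 2–10 cm). Injury scored visually after ~10 days, 0–100.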

[2] = test system: blackgrass (Alopecurus myosuroides); assay: Test A postemergence, visual plant response rating; details: for Blackgrass plant response rating (0 to 100 scale): 500 g ai/ha, postemergence, 0 is no effect, 100 is complete control; for Blackgrass plant response rating: Postemergence, 125 g ai/ha, 0 to 100 scale (0 no effect, 100 complete control)
Summary of the method: as §1

[3] = test system: barnyardgrass (Echinochloa crus-galli); assay: Test A postemergence, visual plant response rating; details: for Barnyardgrass plant response rating (0 to 100 scale): 500 g ai/ha, postemergence, 0 is no effect, 100 is complete control; for Barnyardgrass plant response rating: Postemergence, 125 g ai/ha, 0 to 100 scale (0 no effect, 100 complete control)
Summary of the method: as §1

corn (Zea mays) = assay: Test A postemergence, visual plant response rating; details: for Corn plant response rating (0 to 100 scale): 500 g ai/ha, postemergence, 0 is no effect, 100 is complete control; for Corn plant response rating: Postemergence, 125 g ai/ha, 0 to 100 scale (0 no effect, 100 complete control)
Summary of the method: as §1

[4] = test system: Italian ryegrass (Lolium multiflorum); assay: Test A postemergence, visual plant response rating; details: for Ryegrass, Italian plant response rating (0 to 100 scale): 500 g ai/ha, postemergence, 0 is no effect, 100 is complete control; for Ryegrass, Italian plant response rating: Postemergence, 125 g ai/ha, 0 to 100 scale (0 no effect, 100 complete control)
Summary of the method: as §1

[5] = test system: wheat (Triticum aestivum); assay: Test A postemergence, visual plant response rating; details: for Wheat plant response rating (0 to 100 scale): 500 g ai/ha, postemergence, 0 is no effect, 100 is complete control; for Wheat plant response rating: Postemergence, 125 g ai/ha, 0 to 100 scale (0 no effect, 100 complete control)
Summary of the method: as §1

[6] = test system: pigweed (Amaranthus retroflexus); assay: Test A postemergence, visual plant response rating; details: for Pigweed plant response rating (0 to 100 scale): 500 g ai/ha, postemergence, 0 is no effect, 100 is complete control; for Pigweed plant response rating: Postemergence, 125 g ai/ha, 0 to 100 scale (0 no effect, 100 complete control)
Summary of the method: as §1

[7] = test system: foxtail, giant (giant foxtail, Setaria faberii); assay: Test A postemergence, visual plant response rating; details: for Foxtail, Giant plant response rating (0 to 100 scale): 500 g ai/ha, postemergence, 0 is no effect, 100 is complete control; for Foxtail, Giant plant response rating: Postemergence, 125 g ai/ha, 0 to 100 scale (0 no effect, 100 complete control)
Summary of the method: as §1

[8] = test system: ragweed (common ragweed, Ambrosia elatior); assay: Test A postemergence, visual plant response rating; details: for Ragweed plant response rating (0 to 100 scale): 500 g ai/ha, postemergence, 0 is no effect, 100 is complete control; for Ragweed plant response rating: Postemergence, 125 g ai/ha, 0 to 100 scale (0 no effect, 100 complete control)
Summary of the method: as §1

[9] = test system: galium (catchweed bedstraw, Galium aparine); assay: Test A postemergence, visual plant response rating; details: for Galium plant response rating (0 to 100 scale): 500 g ai/ha, postemergence, 0 is no effect, 100 is complete control; for Galium plant response rating: Postemergence, 125 g ai/ha, 0 to 100 scale (0 no effect, 100 complete control)
Summary of the method: as §1

[10] = test system: barnyardgrass (Echinochloa crus-galli); assay: Test B flooded paddy test, visual plant response rating; details: 250 g ai/ha, Flood, applied to paddy water, 2-leaf stage, evaluated after 13 to 15 days
Summary of the method: (§2)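 At the two-leaf stage, seedlings received compound applied to paddy water flooded 3 cm above soil, a level sustained until assessment. Greenhouse incubation lasted 13 to 15 days before visual comparison with control plants.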

rice (Oryza sativa) = assay: as above; details: 250 g ai/ha, Flood, applied to paddy water, 2-leaf stage, evaluated after 13 to 15 days
Summary of the method: as §2

[11] = test system: sedge, umbrella (small-flower umbrella sedge, Cyperus difformis); assay: as above; details: 250 g ai/ha, Flood, applied to paddy water, 2-leaf stage, evaluated after 13 to 15 days
Summary of the method: as §2

[12] = test system: ducksalad (Heteranhera limosa); assay: as above; details: 250 g ai/ha, Flood, applied to paddy water, 2-leaf stage, evaluated after 13 to 15 days
Summary of the method: as §2

kochia (Kochia scoparia) [13] = assay: Test A preemergence, visual plant response rating; details: for Kochia plant response rating: 125 g ai/ha, preemergence, 0 to 100 scale, 0 no effect, 100 complete control; for Kochia plant response rating (0 to 100 scale): 500 g ai/ha Preemergence, approx. 10 days
Summary of the method: as §1

[14] = test system: barnyardgrass (Echinochloa crus-galli); assay: Test A preemergence, visual plant response rating; details: for Barnyardgrass plant response rating: 125 g ai/ha, preemergence, 0 to 100 scale, 0 no effect, 100 complete control; for Barnyardgrass plant response rating (0 to 100 scale): 500 g ai/ha Preemergence, approx. 10 days
Summary of the method: as §1

[15] = test system: Italian ryegrass (Lolium multiflorum); assay: Test A preemergence, visual plant response rating; details: for Ryegrass, Italian plant response rating (0 to 100 scale): 500 g ai/ha Preemergence, approx. 10 days
Summary of the method: as §1

[16] = test system: pigweed (Amaranthus retroflexus); assay: Test A preemergence, visual plant response rating; details: for Pigweed plant response rating: 125 g ai/ha, preemergence, 0 to 100 scale, 0 no effect, 100 complete control; for Pigweed plant response rating (0 to 100 scale): 500 g ai/ha Preemergence, approx. 10 days
Summary of the method: as §1

[17] = test system: foxtail, giant (giant foxtail, Setaria faberii); assay: Test A preemergence, visual plant response rating; details: for Foxtail, Giant plant response rating: 125 g ai/ha, preemergence, 0 to 100 scale, 0 no effect, 100 complete control; for Foxtail, Giant plant response rating (0 to 100 scale): 500 g ai/ha Preemergence, approx. 10 days
Summary of the method: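 Compared with untreated controls, treated plants received a visual injury score on a 0–100 scale around 10 days after application. The compound, in a non-phytotoxic solvent with surfactant, was given as a preemergence soil spray or postemergence at the one- to two-leaf stage.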

[18] = test system: ragweed (common ragweed, Ambrosia elatior); assay: Test A preemergence, visual plant response rating; details: for Ragweed plant response rating: 125 g ai/ha, preemergence, 0 to 100 scale, 0 no effect, 100 complete control; for Ragweed plant response rating (0 to 100 scale): 500 g ai/ha Preemergence, approx. 10 days
Summary of the method: as §1

Structure (SMILES) | Kochia plant response rating (0 to 100 scale) (kochia (Kochia scoparia) [1]) | Kochia plant response rating (kochia (Kochia scoparia) [1]) | Blackgrass plant response rating (0 to 100 scale) [2] | Blackgrass plant response rating [2] | Barnyardgrass plant response rating (0 to 100 scale) [3] | Barnyardgrass plant response rating [3] | Corn plant response rating (0 to 100 scale) (corn (Zea mays)) | Corn plant response rating (corn (Zea mays)) | Ryegrass, Italian plant response rating (0 to 100 scale) [4] | Ryegrass, Italian plant response rating [4] | Wheat plant response rating (0 to 100 scale) [5] | Wheat plant response rating [5] | Pigweed plant response rating (0 to 100 scale) [6] | Pigweed plant response rating [6] | Foxtail, Giant plant response rating (0 to 100 scale) [7] | Foxtail, Giant plant response rating [7] | Ragweed plant response rating (0 to 100 scale) [8] | Ragweed plant response rating [8] | Galium plant response rating (0 to 100 scale) [9] | Galium plant response rating [9] | further results
C=CCc1ccccc1C(=NOC)c1c(O)c(C)nn(C)c1=O [Compound 122] | 50 | 40 | 40 | 20 | 60 | 20 | 10 | 0 | 90 | 70 | 30 | 0 | 70 | 60 | 70 | 50 | 60 | 50 | 80 | 60 | Plant response rating, Barnyardgrass (0 to 100 scale, 0 is no effect, 100 is complete control) [10]: 0; Plant response rating, Rice (0 to 100 scale, 0 is no effect, 100 is complete control) (rice (Oryza sativa)): 0; Plant response rating, Sedge, Umbrella (0 to 100 scale, 0 is no effect, 100 is complete control) [11]: 0; Plant response rating, Ducksalad (0 to 100 scale, 0 is no effect, 100 is complete control) [12]: 0; Kochia plant response rating (kochia (Kochia scoparia) [13]): 0; Kochia plant response rating (0 to 100 scale) (kochia (Kochia scoparia) [13]): 10; Barnyardgrass plant response rating [14]: 0; Barnyardgrass plant response rating (0 to 100 scale) [14]: 30; Ryegrass, Italian plant response rating ([15]; 125 g ai/ha, preemergence, 0 to 100 scale, 0 no effect, 100 complete control): 50; Ryegrass, Italian plant response rating (0 to 100 scale) [15]: 60; Pigweed plant response rating [16]: 20; Pigweed plant response rating (0 to 100 scale) [16]: 90; Foxtail, Giant plant response rating [17]: 10; Foxtail, Giant plant response rating (0 to 100 scale) [17]: 80; Ragweed plant response rating [18]: 10; Ragweed plant response rating (0 to 100 scale) [18]: 50
CON=C(c1cccc(C2CC2)c1)c1c(O)c(C)nn(C)c1=O [Compound 123] | 70 | 50 | 30 | 20 | 40 | 0 | 0 | 0 | 80 | 60 | 10 | 0 | 80 | 70 | 60 | 20 | 90 | 80 | 80 | 70 | Plant response rating, Barnyardgrass (0 to 100 scale, 0 is no effect, 100 is complete control) [10]: 0; Plant response rating, Rice (0 to 100 scale, 0 is no effect, 100 is complete control) (rice (Oryza sativa)): 0; Plant response rating, Sedge, Umbrella (0 to 100 scale, 0 is no effect, 100 is complete control) [11]: 0; Plant response rating, Ducksalad (0 to 100 scale, 0 is no effect, 100 is complete control) [12]: 0; Kochia plant response rating (kochia (Kochia scoparia) [13]): 10; Kochia plant response rating (0 to 100 scale) (kochia (Kochia scoparia) [13]): 50; Barnyardgrass plant response rating [14]: 0; Barnyardgrass plant response rating (0 to 100 scale) [14]: 50; Ryegrass, Italian plant response rating (0 to 100 scale) [15]: 90; Pigweed plant response rating [16]: 40; Pigweed plant response rating (0 to 100 scale) [16]: 60; Foxtail, Giant plant response rating [17]: 10; Foxtail, Giant plant response rating (0 to 100 scale) [17]: 40; Ragweed plant response rating [18]: 50; Ragweed plant response rating (0 to 100 scale) [18]: 80
